Results as given in the supplement of paper PMC10307832.

Tests used:
Test in all cases: relative viability (nuclei count vs DMSO), 5 days (fraction); higher = more cells survive
Vorinostat = compound: O=C(CCCCCCC(=O)Nc1ccccc1)NO [Vorinostat]
Method in brief: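 Hoechst staining, done together with fixation and permeabilisation, marked nuclei for 4× imaging and MetaXpress counting. This followed 5 days without medium change after lung cancer cell lines, kept overnight at 37 °C in 1536-well plates, were pinned with five library-drug doses (not always all listed) spaced by √10 on vehicle-anchored plates. Viability is the ratio of treated-well to vehicle-well nuclei, expressed as a median across plates. Plates passed only at control CV below 25% with at least one doubling.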

Vorinostat + Luminespib = compound: O=C(CCCCCCC(=O)Nc1ccccc1)NO [Vorinostat] + CCNC(=O)c1noc(-c2cc(C(C)C)c(O)cc2O)c1-c1ccc(CN2CCOCC2)cc1 [Luminespib] (partner 0.01 µM)
Method in brief: (§1)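 One day after seeding in 1536-well plates, lung cancer cell lines were dosed by pin tool. Dosing was either single-drug or a fixed anchor-drug dose plus five library-drug doses (not always all listed) in √10 steps. After 5 days, nuclei were stained in one fix-and-stain step and counted on 4× images, and relative viability is the nuclei count of treated wells over that of vehicle wells, given as the median of duplicate plates.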

Vorinostat + Lapatinib = compound: O=C(CCCCCCC(=O)Nc1ccccc1)NO [Vorinostat] + CS(=O)(=O)CCNCc1ccc(-c2ccc3ncnc(Nc4ccc(OCc5cccc(F)c5)c(Cl)c4)c3c2)o1 [Lapatinib] (partner 2 µM)
Method in brief: as §1

Vorinostat + Crizotinib = compound: O=C(CCCCCCC(=O)Nc1ccccc1)NO [Vorinostat] + C[C@@H](Oc1cc(-c2cnn(C3CCNCC3)c2)cnc1N)c1c(Cl)ccc(F)c1Cl [Crizotinib] (partner 1 µM)
Method in brief: as §1

Cell Line	relative viability (Vorinostat; 0.253 µM)	relative viability (Vorinostat; 0.8 µM)	relative viability (Vorinostat; 1 µM, anchor plate)	relative viability (Vorinostat; 2.53 µM)	relative viability (Vorinostat; 8 µM)	relative viability (Vorinostat + Luminespib; first compound 0.253 µM)	relative viability (Vorinostat + Luminespib; first compound 0.8 µM)	relative viability (Vorinostat + Luminespib; first compound 2.53 µM)	relative viability (Vorinostat + Luminespib; first compound 8 µM)	relative viability (Vorinostat + Lapatinib; first compound 0.253 µM)	relative viability (Vorinostat + Lapatinib; first compound 0.8 µM)	relative viability (Vorinostat + Lapatinib; first compound 2.53 µM)	relative viability (Vorinostat + Lapatinib; first compound 8 µM)	relative viability (Vorinostat + Crizotinib; first compound 0.253 µM)	relative viability (Vorinostat + Crizotinib; first compound 0.8 µM)	relative viability (Vorinostat + Crizotinib; first compound 2.53 µM)	relative viability (Vorinostat + Crizotinib; first compound 8 µM)
EMC-BAC-2	0.92	0.752	0.493	0.363	0.176	1.13	1.13	0.484	0.182	1.04	0.871	0.405	0.149	0.817	0.558	0.166	0.107
SK-MES-1	1.11	1.02	1.08	0.555	0.203	1.01	0.774	0.423	0.178	0.504	0.438	0.433	0.187	1.13	1.06	0.495	0.157
SW 1573	1.25	0.938	0.84	0.485	0.0973	0.212	0.381	0.222	0.0808	1.17	1.07	0.824	0.133	0.845	0.665	0.297	0.156
NCI-H1395	0.91	0.919	0.834	0.631	0.387	0.912	0.829	0.643	0.346	1.26	0.906	0.671	0.371				
NCI-H2347	1.11	0.962	0.61	0.777	0.262	0.608	0.333	0.221	0.192	0.988	1.04	0.766	0.341	0.793	0.715	0.379	0.283
NCI-H650	0.939	0.792	0.457	0.481	0.158	0.773	0.808	0.201	0.155	1.15	0.489	0.196	0.177	0.716	0.503	0.155	0.165
NCI-H1975	1.08	0.817	0.707	0.449	0.14	0.286	0.202	0.147	0.16	1.16	0.787	0.303	0.117	1.04	0.679	0.174	0.134
NCI-H3122	1.06	1.04	0.986	0.737	0.156	0.0783	0.0802	0.0456	0.0728	1.03	0.981	0.939	0.167	0.311	0.317	0.227	0.198
LC-2-ad	0.989	0.722	0.691	0.228	0.155	1.11	0.918	0.367	0.208	0.924	0.67	0.253	0.0672	0.368	0.361	0.268	0.178
HCC-366	1.01	0.956	0.371	0.524	0.045					1.16	0.741	0.0772	0.0322	0.217	0.1	0.0143	0.0124
NCI-H2342	0.936	1.02	0.756	0.756	0.458	0.817	0.589	0.499	0.391								
A549	1.05	0.848		0.337	0.0442					1.02	0.572	0.168	0.0602	0.528	0.107	0.054	0.0379
LCLC-103H	1.08	0.961	0.781	0.812	0.272	0.987	0.939	0.185	0.145					1.12	1.13	0.737	0.254
NCI-H441	1.13	1.05	0.773	0.418	0.18	0.485	0.423	0.194	0.162					0.722	0.776	0.141	0.11
ChaGo-K-1	1.09	0.858	0.759	0.761	0.343	0.82	0.804	0.417	0.165					1.23	0.98	0.408	0.261
NCI-H1793	1.37	0.951	0.821	0.817	0.29	0.206	0.187	0.159	0.146	0.588	0.613	0.375	0.162				
NCI-H1703	1.41	1.39		1.03	0.244					1.64	1.49	1.02	0.247	0.977	0.716	0.298	0.113
HCC-78	0.963	0.674	0.468	0.3	0.221					0.705	0.455	0.249	0.155	0.319	0.229	0.117	0.137
IA-LM	0.976	0.723	0.963	0.349	0.0685					0.765	0.636	0.247	0.073	0.751	0.743	0.152	0.0423
SW 900	0.653	0.644	0.576	0.391	0.128	0.172	0.161	0.16	0.133								
